# Test system: superoxide radicals (O2^-) released from the peritoneal macrophage cells of guinea pig
# Assay: Inhibitory effect against superoxide radicals (O2^-) released from the peritoneal macrophage cells of guinea pig by stimulation
# Assay type: cell-based
# Conditions: Cavia porcellus, Peritoneal macrophage cell; guinea pig peritoneal macrophages 2×10^6 cells/ml; FMLP 10^-7 M; cytochrome C reduction, OD550; 37° C.; read-out: 50% inhibitory concentration (IC50), superoxide radical release
# Method: Inhibitory effect against superoxide radicals (O2^-) released from the peritoneal macrophage cells of guinea pig by stimulation
# Mineral oil (15 ml) was intraperitoneally administered to a guinea pig, then 96 hours after the administration, the peritoneal macrophage cells were samples.
# Superoxide redicals (O2^-) were determined by means of reduction of cytochrome C method according to the procedure described in an article by T. Matsumoto, K. Takeshige and S. Minakami: Biochemical and Biophysical Research Communications, Vol. 88, No. 3, pp. 974-979, (1979).
# The peritoneal macrophage cells were added to make the final concentration of 2×10^6 cells/ml into 1 ml of 80 μM-cytochome C solution, and the test compound of indole derivative of the present invention was added thereto to make the test group sample. On the other hand, water was added in place of the indole derivative of the present invention to make the control group sample. Each of the test group sample and the control group sample was subjected to pure incubaiton at 37° C. for 1 minute.
# As to the stimulating agent for releasing superoxide radicals (O2^-), FMLP (formylmethionyl leucyl phenylalanine) was added to make the final concentration thereof to 10^-7 M, to each of the test group sample and the control group sample. Then both samples were subjected to additional reaction by incubation for 1 minute.
# Difference of the optical absorbances measured at 550 nm (OD550) of both test group and control group samples were determined, and the 50% inhibitory concentration (IC50) was obtained by calculating as the ratio of OD550 of the test group sample to that of the control group sample.
row,Structure (SMILES),IC50 [µg/mL]
1,"COc1c(Cc2c[nH]c3ccccc23)[nH]c(=O)c(Cc2c[nH]c3ccccc23)[n+]1[O-] [Compound E-6g, 3,6-Di(indol-3-yl)methyl-5-methoxy-1,2-dihydropyrazin-2-one 4-oxide]",1.5
2,"COC(=O)n1cc(Cc2nc(Cl)c(CC(C)C)n(OC)c2=O)c2ccccc21 [Compound A-47, 5-Chloro-6-isobutyl-3-[(1-methoxycarbonyl)indol-3-yl]methyl-1-methoxy-12,-dihydropyrazin-2-one]",25
3,"COc1c(Cc2c[nH]c3ccc(Br)cc23)[nH]c(=O)c(CC(C)C)[n+]1[O-] [Compound E-34c, 6-[(5-Bromo)indol-3-yl]methyl-3-isobutyl-5-methoxy-1,2-dihydropyrazin-2-one 4-oxide]",5
4,"CC(C)Cc1c(=O)[nH]c(Cc2c[nH]c3ccccc23)c(OC(C)C)[n+]1[O-] [Compound E-46a, 6-(Indol-3-yl)methyl-3-isobutyl-5-isopropoxy-1,2-dihydroipyrazin-2-one 4-oxide]",3
5,"COc1ccc2[nH]cc(Cc3[nH]c(=O)c(CC(C)C)[n+]([O-])c3OC)c2c1 [Compound E-34h, 3-Isobutyl-5-methoxy-6-[(5-methoxy)indol-3-yl]methyl-1,2-dihydropyrazin-2-one 4-oxide]",5
6,"COc1c(Cc2c[nH]c3ccccc23)[nH]c(=O)c(CC2CCCCC2)[n+]1[O-] [Compound E-6f, 3-Cyclohexylmethyl-6-(indol-3-yl)methyl-5-methoxy-1,2-dihydropyrazin-2-one 4-oxide]",4
7,"CC(C)Cc1c(=O)[nH]c(Cc2c[nH]c3ccccc23)c([S+](C)[O-])[n+]1[O-] (stereo not shown) [Compound E-58, 6-(Indol-3-yl)methyl-3-isobutyl-5-methylsulfinyl-1,2-dihydropyrazin-2-one 4-oxide]",6
8,"CCc1c(Cc2c[nH]c3ccccc23)[nH]c(=O)c(CC(C)C)[n+]1[O-] [Compound A-82b, 5-Ethyl-6-(indol-3-yl)methyl-3-isobutyl-1,2-dihydropyrazin-2-one 4-oxide]",12
9,"CC(C)Cc1c(=O)[nH]c(Cc2c[nH]c3ccccc23)c(S(C)(=O)=O)[n+]1[O-] [Compound E-57d, 6-(Indol-3-yl)methyl-3-isobutyl-5-methylsulfonyl-1,2-dihydropyrazin-2-one 4-oxide]",10
10,"COC1=N[C@@H](CC(C)C)C(=O)N/C1=C\c1c[nH]c2ccccc12 [Compound A-17, (3S,Z)-6-(Indol-3-yl)methylidene-3-isobutyl-5-methoxy-1,2,3,6-tetrahydropyrazin-2-one]",15
11,"CC(C)Cc1c(=O)[nH]c(-c2c[nH]c3ccccc23)c(Cl)[n+]1[O-] [Compound E-30, 5-Chloro-6-(indol-3-yl)-3-isobutyl-1,2-dihydropyrazin-2-one 4-oxide]",8
12,"COc1c(Cc2c[nH]c3c(C)cccc23)[nH]c(=O)c(CC(C)C)[n+]1[O-] [Compound E-34f, 3-Isobutyl-5-methoxy-6-[(7-methyl)indol-3-yl]methyl-1,2-dihydropyrazin-2-one 4-oxide]",7
13,"COc1ccc2[nH]c(C)c(Cc3[nH]c(=O)c(CC(C)C)[n+]([O-])c3OC)c2c1 [Compound E-34k, 3-Isobutyl-5-methoxy-6-[(5-methoxy-2-methyl)indol-3-yl]methyl-1,2-dihydropyrazin-2-one 4-oxide]",2
14,"CC(C)C[C@@H]1C(=O)N(C)[C@@H](Cc2cn(C)c3ccccc23)C(=O)N1O [Compound E-73a, (3S,6R)-1-Hydroxy-6-isobutyl-4-methyl-3-[(1-methyl)indol-3-yl]methylpiperazine-2,5-dione]",2
15,"CC(C)Cc1c(Cl)nc(Cc2c[nH]c3ccccc23)c(=O)n1O [Compound A-38, 5-chloro-1-hydroxy-3-(indol-3-yl)methyl-6-isobutyl-1,2-dihydropyrazin-2-one]",6
16,"CC(C)C[C@@H]1C(=O)N(C)[C@@H](Cc2c[nH]c3ccccc23)C(=O)N1O [Compound E-72a, (3S,6R)-1-Hydroxy-3-(indol-3-yl)methyl-6-isobutyl-4-methylpiperazine-2,5-dione]",0.8
